Laboratory results from PubChem BioAssay (NCI).
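Following 48 hours of exposure in 96-well plates, responses at five concentrations were used to interpolate endpoints linearly. GI50: concentration for 50% inhibition of growth. Definition used: TGI = concentration required for complete inhibition of growth.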

Tests used:
Assay in all cases: inhibition of tumour cell growth, NCI panel, 48 h
CAKI-1 renal = system: CAKI-1 renal
SK-OV-3 ovarian = system: SK-OV-3 ovarian
A498 renal = system: A498 renal
RPMI-8226 leukemia = system: RPMI-8226 leukemia
SF-268 CNS = system: SF-268 CNS
HCT-116 colon = system: HCT-116 colon
HT29 colon = system: HT29 colon
KM12 colon = system: KM12 colon
CCRF-CEM leukemia = system: CCRF-CEM leukemia
HL-60(TB) leukemia = system: HL-60(TB) leukemia
SR leukemia = system: SR leukemia
M14 melanoma = system: M14 melanoma
NCI-H23 lung = system: NCI-H23 lung
MOLT-4 leukemia = system: MOLT-4 leukemia
UACC-257 melanoma = system: UACC-257 melanoma
NCI/ADR-RES ovarian = system: NCI/ADR-RES ovarian
HCT-15 colon = system: HCT-15 colon
A549 NSCLC = system: A549 NSCLC
SK-MEL-28 melanoma = system: SK-MEL-28 melanoma
PC-3 prostate = system: PC-3 prostate
SN12C renal = system: SN12C renal
HCC-2998 colon = system: HCC-2998 colon
NCI-H522 lung = system: NCI-H522 lung
TK-10 renal = system: TK-10 renal
SNB-75 CNS = system: SNB-75 CNS
SNB-19 CNS = system: SNB-19 CNS
UO-31 renal = system: UO-31 renal
NCI-H226 lung = system: NCI-H226 lung
BT-549 breast = system: BT-549 breast
IGROV1 ovarian = system: IGROV1 ovarian
COLO 205 colon = system: COLO 205 colon
OVCAR-3 ovarian = system: OVCAR-3 ovarian
SK-MEL-5 melanoma = system: SK-MEL-5 melanoma
NCI-H460 lung = system: NCI-H460 lung
K-562 leukemia = system: K-562 leukemia
DU-145 prostate = system: DU-145 prostate
786-0 renal = system: 786-0 renal
HOP-62 NSCLC = system: HOP-62 NSCLC
HS 578T breast = system: HS 578T breast
OVCAR-8 ovarian = system: OVCAR-8 ovarian
SW-620 colon = system: SW-620 colon
UACC-62 melanoma = system: UACC-62 melanoma
LOX IMVI melanoma = system: LOX IMVI melanoma
SF-539 CNS = system: SF-539 CNS
U251 CNS = system: U251 CNS
ACHN renal = system: ACHN renal
MALME-3M melanoma = system: MALME-3M melanoma
OVCAR-4 ovarian = system: OVCAR-4 ovarian
MCF7 breast = system: MCF7 breast
SK-MEL-2 melanoma = system: SK-MEL-2 melanoma
MDA-MB-231 breast = system: MDA-MB-231 breast
SF-295 CNS = system: SF-295 CNS

SMILES: C=C(C)[C@@H]1CCC[C@]2(COS(=O)(=O)c3ccc(C)cc3)CC[C@]3(C)[C@@H](CC[C@@H]4[C@@]5(C)CCCNC(C)(C)[C@@H]5CC[C@]43C)[C@@H]12
- GI50 (CAKI-1 renal): 1740 nM
- TGI (CAKI-1 renal): 3150 nM
- GI50 (SK-OV-3 ovarian): 1870 nM
- TGI (SK-OV-3 ovarian): 3300 nM
- GI50 (A498 renal): 1630 nM
- TGI (A498 renal): 3140 nM
- GI50 (RPMI-8226 leukemia): 1860 nM
- TGI (RPMI-8226 leukemia): 4540 nM

SMILES: COc1ccc2c(C3=C(c4cn(C)c5ccccc45)C(=O)NC3=O)cn(C)c2c1
- GI50 (SF-268 CNS): 292 nM
- TGI (SF-268 CNS): > 25000 nM
- GI50 (HCT-116 colon): 112 nM
- TGI (HCT-116 colon): > 25000 nM
- GI50 (HT29 colon): 98 nM
- TGI (HT29 colon): > 14000 nM
- GI50 (KM12 colon): 111 nM
- TGI (KM12 colon): 7240 nM
- GI50 (CCRF-CEM leukemia): 96.1 nM
- TGI (CCRF-CEM leukemia): > 25000 nM
- GI50 (CAKI-1 renal): 94.1 nM
- TGI (CAKI-1 renal): > 25000 nM
- GI50 (HL-60(TB) leukemia): 99.8 nM
- GI50 (SR leukemia): 71.7 nM
- TGI (SR leukemia): > 25000 nM
- GI50 (M14 melanoma): 99.9 nM
- TGI (M14 melanoma): > 25000 nM
- GI50 (NCI-H23 lung): 143 nM
- TGI (NCI-H23 lung): > 25000 nM
- GI50 (MOLT-4 leukemia): 240 nM
- TGI (MOLT-4 leukemia): > 24000 nM
- GI50 (UACC-257 melanoma): 1610 nM
- TGI (UACC-257 melanoma): > 25000 nM
- GI50 (SK-OV-3 ovarian): 138 nM
- TGI (SK-OV-3 ovarian): > 25000 nM
- GI50 (NCI/ADR-RES ovarian): 92.8 nM
- TGI (NCI/ADR-RES ovarian): > 25000 nM
- GI50 (HCT-15 colon): 116 nM
- TGI (HCT-15 colon): > 25000 nM
- GI50 (A549 NSCLC): 135 nM
- TGI (A549 NSCLC): > 25000 nM
- GI50 (SK-MEL-28 melanoma): 166 nM
- TGI (SK-MEL-28 melanoma): > 25000 nM
- GI50 (PC-3 prostate): 93.6 nM
- TGI (PC-3 prostate): > 25000 nM
- GI50 (SN12C renal): 221 nM
- TGI (SN12C renal): > 25000 nM
- GI50 (HCC-2998 colon): 410 nM
- TGI (HCC-2998 colon): > 25000 nM
- GI50 (NCI-H522 lung): 74.2 nM
- TGI (NCI-H522 lung): 902 nM
- GI50 (TK-10 renal): > 25000 nM
- TGI (TK-10 renal): > 25000 nM
- GI50 (SNB-75 CNS): 56.7 nM
- TGI (SNB-75 CNS): > 25000 nM
- GI50 (SNB-19 CNS): > 25000 nM
- TGI (SNB-19 CNS): > 25000 nM
- GI50 (UO-31 renal): 3690 nM
- TGI (UO-31 renal): > 25000 nM
- GI50 (NCI-H226 lung): 2630 nM
- TGI (NCI-H226 lung): > 25000 nM
- TGI (BT-549 breast): > 25000 nM
- GI50 (IGROV1 ovarian): 147 nM
- TGI (IGROV1 ovarian): > 25000 nM
- GI50 (COLO 205 colon): 91.7 nM
- TGI (COLO 205 colon): 323 nM
- GI50 (A498 renal): 54 nM
- TGI (A498 renal): 215 nM
- GI50 (OVCAR-3 ovarian): 84.1 nM
- TGI (OVCAR-3 ovarian): 1030 nM
- GI50 (SK-MEL-5 melanoma): 89.9 nM
- TGI (SK-MEL-5 melanoma): 2570 nM
- GI50 (NCI-H460 lung): 98.2 nM
- TGI (NCI-H460 lung): > 25000 nM
- GI50 (K-562 leukemia): 101 nM
- TGI (K-562 leukemia): > 25000 nM
- GI50 (DU-145 prostate): 137 nM
- TGI (DU-145 prostate): > 25000 nM
- GI50 (786-0 renal): 255 nM
- TGI (786-0 renal): > 25000 nM
- GI50 (HOP-62 NSCLC): 122 nM
- TGI (HOP-62 NSCLC): > 25000 nM
- GI50 (HS 578T breast): 113 nM
- TGI (HS 578T breast): > 25000 nM
- GI50 (OVCAR-8 ovarian): 150 nM
- TGI (OVCAR-8 ovarian): > 25000 nM
- GI50 (SW-620 colon): 104 nM
- TGI (SW-620 colon): > 25000 nM
- GI50 (UACC-62 melanoma): 137 nM
- TGI (UACC-62 melanoma): > 25000 nM
- GI50 (LOX IMVI melanoma): 154 nM
- TGI (LOX IMVI melanoma): > 25000 nM
- GI50 (SF-539 CNS): 55.6 nM
- TGI (SF-539 CNS): 134 nM
- GI50 (U251 CNS): 102 nM
- TGI (U251 CNS): > 25000 nM
- GI50 (RPMI-8226 leukemia): 110 nM
- TGI (RPMI-8226 leukemia): > 25000 nM
- GI50 (ACHN renal): 254 nM
- TGI (ACHN renal): > 25000 nM
- GI50 (MALME-3M melanoma): > 25000 nM
- TGI (MALME-3M melanoma): > 25000 nM
- GI50 (OVCAR-4 ovarian): 258 nM
- TGI (OVCAR-4 ovarian): > 25000 nM
- GI50 (MCF7 breast): 85.3 nM
- TGI (MCF7 breast): > 25000 nM
- GI50 (SK-MEL-2 melanoma): 597 nM
- TGI (SK-MEL-2 melanoma): > 9970 nM
- GI50 (MDA-MB-231 breast): 542 nM
- TGI (MDA-MB-231 breast): > 25000 nM
- GI50 (SF-295 CNS): 64.9 nM
